PubChem BioAssay AID2060906 (Molecular Pharmacology Branch, DTP, NCI, 2025)
“And” between values parts separate entries of the source, which are not always exact repeats. Identical values can stand only once.

Test system: 485176-168-R4-J1-PDC complex spheroid growth
Test: Anticancer human tumor 485176-168-R4-J1-PDC patient-derived pancreatic adenocarcinoma cell line growth inhibition [RAS]
Settings: for IC50: curve of first compound; for viability, T/C: stronger effect = lower value
In short: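 Multi-cell-type spheroids: tumor cells plus HUVEC endothelial cells and mesenchymal stem cells. RAS-pathway inhibitors were combined with targeted agents, each dosed in half-log steps down from clinical Cmax, or from 10 microM when Cmax was unknown.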

[1] = second compound 0.000949 µM, first compound 0.0316 µM
[2] = second compound 0.000949 µM, first compound 0.1 µM
[3] = second compound 0.000949 µM, first compound 0.316 µM
[4] = second compound 0.000949 µM, first compound 1 µM
[5] = second compound 0.003 µM, first compound 0.0316 µM
[6] = second compound 0.003 µM, first compound 0.1 µM
[7] = second compound 0.003 µM, first compound 0.316 µM
[8] = second compound 0.003 µM, first compound 1 µM
[9] = second compound 0.00949 µM, first compound 0.0316 µM
[10] = second compound 0.00949 µM, first compound 0.1 µM
[11] = second compound 0.00949 µM, first compound 0.316 µM
[12] = second compound 0.00949 µM, first compound 1 µM
[13] = second compound 0.03 µM, first compound 0.0316 µM
[14] = second compound 0.03 µM, first compound 0.1 µM
[15] = second compound 0.03 µM, first compound 0.316 µM
[16] = second compound 0.03 µM, first compound 1 µM
[17] = second compound 0.0949 µM, first compound 0.0316 µM
[18] = second compound 0.0949 µM, first compound 0.1 µM
[19] = second compound 0.0949 µM, first compound 0.316 µM
[20] = second compound 0.0949 µM, first compound 1 µM
[21] = second compound 0.3 µM, first compound 0.0316 µM
[22] = second compound 0.3 µM, first compound 0.1 µM
[23] = second compound 0.3 µM, first compound 0.316 µM
[24] = second compound 0.3 µM, first compound 1 µM
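Further: spheroids exposed to compounds for seven days before readout.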
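Wherever viability, T/C is given: luminescence viability expressed relative to DMSO vehicle wells set as 100%.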

For `C=CC(=O)Nc1cc(Nc2nccc(-c3cn(C)c4ccccc34)n2)c(OC)cc1N(C)CCN(C)C` + CCn1c(-c2cccnc2C(C)OC)c2c3cc(ccc31)N1CCOC(CC(NC(=O)C(C(C)C)N(C)C(=O)C3(F)CCN(C(=O)C#CC(C)(C)N(C)C)CC3)C(=O)N3CCCC(N3)C(=O)OCC(C)(C)C2)C1, which IC50 (second compound 0.000949 µM) is on record?
Its IC50 is > 1 µM.

What about the IC50 (second compound 0.003 µM) of the same compound?
The IC50 was > 1 µM.

And the IC50 (second compound 0.00949 µM)?
Its IC50 is > 1 µM.

What about the IC50 (second compound 0.03 µM) of the same compound?
The IC50 was > 1 µM.

And the IC50 (second compound 0.0949 µM)?
Its IC50 is > 1 µM.

What about the IC50 (second compound 0.3 µM) of the same compound?
The IC50 was > 1 µM.

And the viability, T/C (second compound 0.000949 µM, first compound 0.00316 µM)?
Its viability, T/C is 114%.

And the viability, T/C (second compound 0.000949 µM, first compound 0.01 µM)?
The viability, T/C was 109%.

What about the viability, T/C [1] of the same compound?
The viability, T/C was 102%.

What about the viability, T/C [2] of the same compound?
Its viability, T/C is 97.6%.

What about the viability, T/C [3] of the same compound?
Its viability, T/C is 84.5%.

What about the viability, T/C [4] of the same compound?
Its viability, T/C is 72%.

And the viability, T/C (second compound 0.003 µM, first compound 0.00316 µM)?
The viability, T/C was 98.2%.

What about the viability, T/C (second compound 0.003 µM, first compound 0.01 µM) of the same compound?
Its viability, T/C is 105%.

And the viability, T/C [5]?
Its viability, T/C is 90.3%.

What about the viability, T/C [6] of the same compound?
Its viability, T/C is 85.6%.

What about the viability, T/C [7] of the same compound?
The viability, T/C was 99.1%.

And the viability, T/C [8]?
Its viability, T/C is 61.4%.

What about the viability, T/C (second compound 0.00949 µM, first compound 0.00316 µM) of the same compound?
Its viability, T/C is 104%.

What about the viability, T/C (second compound 0.00949 µM, first compound 0.01 µM) of the same compound?
The viability, T/C was 109%.

What about the viability, T/C [9] of the same compound?
Its viability, T/C is 102%.

And the viability, T/C [10]?
Its viability, T/C is 88.2%.

And the viability, T/C [11]?
The viability, T/C was 80.8%.

And the viability, T/C [12]?
Its viability, T/C is 69%.

What about the viability, T/C (second compound 0.03 µM, first compound 0.00316 µM) of the same compound?
Its viability, T/C is 86.8%.

And the viability, T/C (second compound 0.03 µM, first compound 0.01 µM)?
Its viability, T/C is 113%.

And the viability, T/C [13]?
The viability, T/C was 114%.

What about the viability, T/C [14] of the same compound?
Its viability, T/C is 102%.

And the viability, T/C [15]?
Its viability, T/C is 89.9%.

What about the viability, T/C [16] of the same compound?
Its viability, T/C is 58.7%.

What about the viability, T/C (second compound 0.0949 µM, first compound 0.00316 µM) of the same compound?
The viability, T/C was 81.6%.

What about the viability, T/C (second compound 0.0949 µM, first compound 0.01 µM) of the same compound?
The viability, T/C was 77.9%.

What about the viability, T/C [17] of the same compound?
The viability, T/C was 81.6%.

And the viability, T/C [18]?
Its viability, T/C is 96.5%.

What about the viability, T/C [19] of the same compound?
The viability, T/C was 92.3%.

What about the viability, T/C [20] of the same compound?
The viability, T/C was 57.1%.

And the viability, T/C (second compound 0.3 µM, first compound 0.00316 µM)?
The viability, T/C was 87.6%.

And the viability, T/C (second compound 0.3 µM, first compound 0.01 µM)?
Its viability, T/C is 93%.

And the viability, T/C [21]?
Its viability, T/C is 82.7%.

And the viability, T/C [22]?
Its viability, T/C is 93.1%.

And the viability, T/C [23]?
The viability, T/C was 78.3%.

And the viability, T/C [24]?
The viability, T/C was 65.9%.

For `NC1c2ccccc2OC12CCN(c1cnc3c(N4CCCc5ncccc54)n[nH]c3n1)CC2` (stereo not given) + CCn1c(-c2cccnc2C(C)OC)c2c3cc(ccc31)N1CCOC(CC(NC(=O)C(C(C)C)N(C)C(=O)C3(F)CCN(C(=O)C#CC(C)(C)N(C)C)CC3)C(=O)N3CCCC(N3)C(=O)OCC(C)(C)C2)C1, which IC50 (second compound 0.000949 µM) is on record?
The IC50 was > 10 µM.

What about the IC50 (second compound 0.003 µM) of the same compound?
Its IC50 is > 10 µM.

And the IC50 (second compound 0.00949 µM)?
Its IC50 is > 10 µM.

What about the IC50 (second compound 0.03 µM) of the same compound?
Its IC50 is > 10 µM.

What about the IC50 (second compound 0.0949 µM) of the same compound?
The IC50 was > 10 µM.

And the IC50 (second compound 0.3 µM)?
The IC50 was > 10 µM.

And the viability, T/C [1]?
Its viability, T/C is 91.4%.

What about the viability, T/C [2] of the same compound?
The viability, T/C was 78.7%.

And the viability, T/C [3]?
Its viability, T/C is 94.2%.

What about the viability, T/C [4] of the same compound?
The viability, T/C was 85.9%.

And the viability, T/C (second compound 0.000949 µM, first compound 3.16 µM)?
Its viability, T/C is 67.8%.

And the viability, T/C (second compound 0.000949 µM, first compound 10 µM)?
The viability, T/C was 71.6%.

What about the viability, T/C [5] of the same compound?
The viability, T/C was 74.5%.

What about the viability, T/C [6] of the same compound?
Its viability, T/C is 89.4%.

What about the viability, T/C [7] of the same compound?
Its viability, T/C is 84.1%.

And the viability, T/C [8]?
The viability, T/C was 85.5%.

What about the viability, T/C (second compound 0.003 µM, first compound 3.16 µM) of the same compound?
The viability, T/C was 85.7%.

And the viability, T/C (second compound 0.003 µM, first compound 10 µM)?
Its viability, T/C is 70.2%.

And the viability, T/C [9]?
Its viability, T/C is 85%.

And the viability, T/C [10]?
Its viability, T/C is 75.6%.

What about the viability, T/C [11] of the same compound?
The viability, T/C was 81.9%.

What about the viability, T/C [12] of the same compound?
The viability, T/C was 86.8%.

What about the viability, T/C (second compound 0.00949 µM, first compound 3.16 µM) of the same compound?
Its viability, T/C is 89.9%.

What about the viability, T/C (second compound 0.00949 µM, first compound 10 µM) of the same compound?
Its viability, T/C is 63.6%.

What about the viability, T/C [13] of the same compound?
Its viability, T/C is 88.8%.

What about the viability, T/C [14] of the same compound?
Its viability, T/C is 86.8%.

And the viability, T/C [15]?
Its viability, T/C is 80.2%.

And the viability, T/C [16]?
Its viability, T/C is 71.3%.

What about the viability, T/C (second compound 0.03 µM, first compound 3.16 µM) of the same compound?
Its viability, T/C is 93.9%.

What about the viability, T/C (second compound 0.03 µM, first compound 10 µM) of the same compound?
The viability, T/C was 61.1%.

And the viability, T/C [17]?
Its viability, T/C is 75%.

What about the viability, T/C [18] of the same compound?
The viability, T/C was 71.8%.

And the viability, T/C [19]?
Its viability, T/C is 72.7%.

What about the viability, T/C [20] of the same compound?
Its viability, T/C is 65.9%.

What about the viability, T/C (second compound 0.0949 µM, first compound 3.16 µM) of the same compound?
Its viability, T/C is 82.2%.

What about the viability, T/C (second compound 0.0949 µM, first compound 10 µM) of the same compound?
Its viability, T/C is 61.7%.

What about the viability, T/C [21] of the same compound?
Its viability, T/C is 59.9%.

And the viability, T/C [22]?
The viability, T/C was 76.7%.

And the viability, T/C [23]?
Its viability, T/C is 57%.

What about the viability, T/C [24] of the same compound?
Its viability, T/C is 70.2%.

And the viability, T/C (second compound 0.3 µM, first compound 3.16 µM)?
Its viability, T/C is 62.9%.

What about the viability, T/C (second compound 0.3 µM, first compound 10 µM) of the same compound?
Its viability, T/C is 61.7%.

How did the viability, T/C (compound 0.000949 µM) turn out when `CC1(C)CCC(Nc2ncc(C(F)(F)F)c(-c3c[nH]c4c(P(C)(C)=O)c(C#N)ccc34)n2)CN1` (stereo not given) was run?
Its viability, T/C is 110% (2×) and 103% and 111%.

What about the viability, T/C (compound 0.003 µM) of the same compound?
The viability, T/C was 90.3% [middle of 4 runs].

And the viability, T/C (compound 0.00949 µM)?
Its viability, T/C is 77.3% [middle of 4 runs].

And the viability, T/C (compound 0.03 µM)?
Its viability, T/C is 62.6% [middle of 4 runs].

And the viability, T/C (compound 0.0949 µM)?
Its viability, T/C is 50.2% [middle of 4 runs].

What about the viability, T/C (compound 0.3 µM) of the same compound?
The viability, T/C was 49.1% [middle of 4 runs].
